Experimental data from patent publication US5041567A, “Antibacterial monic acid derivatives” (Beecham Group plc, priority 1982, dated 1991).
≈ marks a conversion by molar mass, not a printed value. Like-named read-outs stand apart in the source and are kept apart here.

Key:
M. suipneumoniae NB12 = assay: MIC against mycoplasma in vitro; type: cell-based; settings: Mesomycoplasma hyopneumoniae
M. suipneumoniae HK(2) = assay: MIC against mycoplasma in vitro; type: cell-based; settings: Mesomycoplasma hyopneumoniae, 144 h
[1] = test system: M. suipneumoniae J2206/183^b; assay: MIC against mycoplasma in vitro; type: cell-based; settings: Mesomycoplasma hyopneumoniae, 144 h
M. suipneumoniae MS 16 = assay: MIC against mycoplasma in vitro; type: cell-based; settings: Mesomycoplasma hyopneumoniae, MS16, 144 h
M. suipneumoniae LABER = assay: MIC against mycoplasma in vitro; type: cell-based; settings: Mesomycoplasma hyopneumoniae, 144 h
M. suipneumoniae UCD 1 = assay: MIC against mycoplasma in vitro; type: cell-based; settings: Mesomycoplasma hyopneumoniae, UCD1, 144 h
M. suipneumoniae TAM 6N = assay: MIC against mycoplasma in vitro; type: cell-based; settings: Mesomycoplasma hyopneumoniae, TAM6N, 144 h
[2] = test system: M. suipneumoniae ATCC 25095; assay: MIC against mycoplasma in vitro; type: cell-based; settings: Mesomycoplasma hyopneumoniae, ATCC25095, 144 h
M. hyorhinis ATCC 23234 = assay: MIC against mycoplasma in vitro; type: cell-based; settings: Mesomycoplasma hyorhinis, ATCC23234, 144 h
M. hyorhinis ATCC 25021 = assay: MIC against mycoplasma in vitro; type: cell-based; settings: Mesomycoplasma hyorhinis, ATCC25021, 144 h
[3] = test system: M. hyosynoviae ATCC 25591; assay: MIC against mycoplasma in vitro; type: cell-based; settings: 144 h
M. bovis NCTC 10131 = assay: microbe, parasite or virus in culture; type: cell-based; settings: NCTC10131, 144 h
[4] = test system: M. bovigenitalium ATCC 14173; assay: MIC against mycoplasma in vitro; type: cell-based; settings: 144 h
P. mirabilis 889 = assay: MIC against human bacteria in vitro; type: cell-based; settings: Proteus mirabilis; P. mirabilis 889; 5% chocolated horse blood agar, 18 hours; read-out: MIC
K. aerogenes A = assay: MIC against human bacteria in vitro; type: cell-based; settings: Klebsiella aerogenes; K. aerogenes A; 5% chocolated horse blood agar, 18 hours; read-out: MIC
[5] = test system: Ps. aeruginosa NCTC 10662; assay: MIC against human bacteria in vitro; type: cell-based; settings: Pseudomonas aeruginosa, NCTC10662; Ps. aeruginosa NCTC 10662; 5% chocolated horse blood agar, 18 hours; read-out: MIC
[6] = test system: Haemophilus influenzae Wy21; assay: MIC against human bacteria in vitro; type: cell-based
[7] = test system: Corynebacterium xerosis 9755; assay: MIC against human bacteria in vitro; type: cell-based; settings: Corynebacterium xerosis 9755; 5% chocolated horse blood agar, 18 hours; read-out: MIC
Sarcina lutea 8340 = assay: MIC against human bacteria in vitro; type: cell-based; settings: Micrococcus luteus; Sarcina lutea 8340; 5% chocolated horse blood agar, 18 hours; read-out: MIC
Staph. aureus Russell = assay: MIC against human bacteria in vitro; type: cell-based; settings: Staphylococcus aureus; Staph. aureus Russell; 5% chocolated horse blood agar, 18 hours; read-out: MIC
Staph. aureus W2827 = assay: MIC against human bacteria in vitro; type: cell-based; settings: Staphylococcus aureus; Staph. aureus W2827; 5% chocolated horse blood agar, 18 hours; read-out: MIC
Strep. faecalis I = assay: MIC against human bacteria in vitro; type: cell-based; settings: Enterococcus faecalis; Strep. faecalis I; 5% chocolated horse blood agar, 18 hours; read-out: MIC
Strep. agalactiae 2788-B = assay: MIC against human bacteria in vitro; type: cell-based; settings: Streptococcus agalactiae; Strep. agalactiae 2788-B; 5% chocolated horse blood agar, 18 hours; read-out: MIC
Bord. bronchiseptica B08 = assay: MIC against veterinary bacteria in vitro; settings: Bordetella bronchiseptica, B08, 18 h
Description: (§1) The activity of the compounds of the Examples against various veterinarily important bacteria, was assayed in vitro using two-fold serial dilutions in Diagnostic Sensitivity Test Agar inoculated with 10^4 organisms.

Bord. bronchiseptica B09 = assay: MIC against veterinary bacteria in vitro; settings: Bordetella bronchiseptica, B09, 18 h
Description: as §1

Past. multocida PA1 = assay: MIC against veterinary bacteria in vitro; settings: Pasteurella multocida, PA1, 18 h
Description: as §1

Past. multocida PA2 = assay: MIC against veterinary bacteria in vitro; settings: Pasteurella multocida, PA2, 18 h
Description: as §1

Past. haemolytica PA5 = assay: MIC against veterinary bacteria in vitro; settings: Mannheimia haemolytica, PA5, 18 h
Description: as §1

[8] = test system: Erysipelothrix rhusiopathiae NCTC 8163; assay: MIC against veterinary bacteria in vitro; settings: Erysipelothrix rhusiopathiae, NCTC8163, 18 h
Description: as §1

[9] = test system: Corynebacterium pyogenes CY1; assay: MIC against veterinary bacteria in vitro; settings: CY1, 18 h
Description: as §1

[10] = test system: Staph. aureus B4 (pen. resistant); assay: MIC against veterinary bacteria in vitro; settings: Staphylococcus aureus, 18 h
Description: as §1

[11] = test system: Strep. suis (group D) SPS11; assay: MIC against veterinary bacteria in vitro; settings: Streptococcus suis, 18 h
Description: as §1

Strep. dysgalactiae SPD1 = assay: MIC against veterinary bacteria in vitro; settings: Streptococcus dysgalactiae, SPD1, 18 h
Description: as §1

SMILES | MIC (M. suipneumoniae UCD 1) | MIC (M. bovis NCTC 10131) | MIC [4] | MIC (P. mirabilis 889) | MIC (K. aerogenes A) | MIC [5] | MIC [7] | MIC (Sarcina lutea 8340) | MIC (Staph. aureus Russell) | MIC (Staph. aureus W2827) | MIC (Strep. faecalis I) | MIC (Strep. agalactiae 2788-B) | MIC (Bord. bronchiseptica B08) | MIC (Bord. bronchiseptica B09) | MIC (Past. multocida PA1) | MIC (Past. multocida PA2) | MIC (Past. haemolytica PA5) | MIC [8] | MIC [9] | MIC [10] | further results
C/C(=C\c1ncc(-c2ccsc2)o1)C[C@@H]1OC[C@H](C[C@@H]2O[C@H]2[C@@H](C)[C@H](C)O)[C@@H](O)[C@H]1O [Example 20, 5-(3-Thienyl)-2-(1-normon-2-yl) oxazole A] | 1 µg/mL (≈ 2.22 µM) | ≤ 0.01 µg/mL | 0.05 µg/mL (≈ 0.111 µM) | > 128 µg/mL | > 128 µg/mL | > 128 µg/mL | > 128 µg/mL | > 128 µg/mL | 4 µg/mL (≈ 8.9 µM) | 4 µg/mL (≈ 8.9 µM) | > 128 µg/mL | 2 µg/mL (≈ 4.45 µM) | 80 µg/mL (≈ 178 µM) | 10 µg/mL (≈ 22.2 µM) | 2.5 µg/mL (≈ 5.56 µM) | 0.312 µg/mL (≈ 0.694 µM) | 80 µg/mL (≈ 178 µM) | 80 µg/mL (≈ 178 µM) | > 80 µg/mL | 0.63 µg/mL (≈ 1.4 µM) | MIC (M. suipneumoniae NB12; 144 h, M. suipneumoniae NB12, Friis broth, 0.9% agarose, 6 days, 37° C., read-out: MIC): 0.5 µg/mL (≈ 1.11 µM); MIC (M. suipneumoniae HK(2)): 1 µg/mL (≈ 2.22 µM); MIC [1]: 1 µg/mL (≈ 2.22 µM); MIC (M. suipneumoniae MS 16; M. suipneumoniae MS 16, 6 days, 37° C., read-out: MIC): 0.5 µg/mL (≈ 1.11 µM); MIC (M. suipneumoniae LABER; M. suipneumoniae LABER, 6 days, 37° C., read-out: MIC): 0.5 µg/mL (≈ 1.11 µM); MIC (M. suipneumoniae TAM 6N): 1 µg/mL (≈ 2.22 µM); MIC ([2]; M. suipneumoniae ATCC 25095, 6 days, 37° C., read-out: MIC): 0.5 µg/mL (≈ 1.11 µM); MIC (M. hyorhinis ATCC 23234; M. hyorhinis ATCC 23234, 6 days, 37° C., read-out: MIC): 0.5 µg/mL (≈ 1.11 µM); MIC (M. hyorhinis ATCC 25021; M. hyorhinis ATCC 25021, 6 days, 37° C., read-out: MIC): 0.5 µg/mL (≈ 1.11 µM); MIC ([3]; M. hyosynoviae ATCC 25591, 6 days, 37° C., read-out: MIC): 0.5 µg/mL (≈ 1.11 µM); MIC ([6]; Haemophilus influenzae, WY21, 18 h): 0.5 µg/mL (≈ 1.11 µM); MIC [11]: 40 µg/mL (≈ 89 µM); MIC (Strep. dysgalactiae SPD1): 0.625 µg/mL (≈ 1.39 µM)
C/C(=C\c1ncc(-c2ccc(C#N)cc2)o1)C[C@@H]1OC[C@H](C[C@@H]2O[C@H]2[C@@H](C)[C@H](C)O)[C@@H](O)[C@H]1O [Example 21, 5-p-Cyanophenyl-2-(1-normon-2-yl) oxazole A] | 0.25 µg/mL (≈ 0.534 µM) | 0.025 µg/mL (≈ 0.0534 µM) | 0.05 µg/mL (≈ 0.107 µM) | > 128 µg/mL | > 128 µg/mL | > 128 µg/mL | > 128 µg/mL | > 128 µg/mL | 4 µg/mL (≈ 8.54 µM) | 4 µg/mL (≈ 8.54 µM) | > 128 µg/mL | 4 µg/mL (≈ 8.54 µM) | 40 µg/mL (≈ 85.4 µM) | 10 µg/mL (≈ 21.3 µM) | 2.5 µg/mL (≈ 5.34 µM) | 0.625 µg/mL (≈ 1.33 µM) | 20 µg/mL (≈ 42.7 µM) | 40 µg/mL (≈ 85.4 µM) | > 80 µg/mL | 1.25 µg/mL (≈ 2.67 µM) | MIC (M. suipneumoniae NB12; NB12, 144 h): 0.25 µg/mL (≈ 0.534 µM); MIC (M. suipneumoniae HK(2); M. suipneumoniae HK(2), 6 days, 37° C., read-out: MIC): 0.5 µg/mL (≈ 1.07 µM); MIC ([1]; M. suipneumoniae J2206/183^b, 6 days, 37° C., read-out: MIC): 0.5 µg/mL (≈ 1.07 µM); MIC (M. suipneumoniae MS 16): 0.25 µg/mL (≈ 0.534 µM); MIC (M. suipneumoniae LABER): 0.25 µg/mL (≈ 0.534 µM); MIC (M. suipneumoniae TAM 6N; M. suipneumoniae TAM 6N, 6 days, 37° C., read-out: MIC): 0.5 µg/mL (≈ 1.07 µM); MIC [2]: 0.25 µg/mL (≈ 0.534 µM); MIC (M. hyorhinis ATCC 23234): 0.25 µg/mL (≈ 0.534 µM); MIC (M. hyorhinis ATCC 25021): 0.25 µg/mL (≈ 0.534 µM); MIC [3]: 0.1 µg/mL (≈ 0.213 µM); MIC ([6]; Haemophilus influenzae Wy21, 5% chocolated horse blood agar, 18 hours, read-out: MIC): 2 µg/mL (≈ 4.27 µM); MIC [11]: 10 µg/mL (≈ 21.3 µM); MIC (Strep. dysgalactiae SPD1): 0.625 µg/mL (≈ 1.33 µM)
